According to PMC5570892, “Indole-based perenosins as highly potent HCl transporters and potential anti-cancer agents” (Scientific Reports, 2017):
Like-named read-outs stand apart in the source and are kept apart here.

Assays:
MDA-MB-231 cells = assay: MTT cell viability assay; type: cell-based; conditions: Homo sapiens, error from three repeats in brackets
Method: Herein, we carried out further in vitro studies at the University of Barcelona for the full library of perenosins. Single dose screening for cell viability using the methylthiazoletetrazolium (MTT) colorimetric assay over five different cell lines (cancer cells MCF-7, MDA-MB-231, A549 and SW620, and non-cancerous human cells MCF-10A) was conducted.
While perenosin 5, with pentyl substituent at R3, has similar cell viability effects as 1d, bis-indole perenosin 7 with pentyl substituent at R1 has a moderate degree of late onset by a factor of 7.
S11.1 Cell Lines and Culture Conditions
The human cell lines were obtained from the American Type Culture Collection (ATCC, Manassas VA). Breast adenocarcinoma MDA-MB-231 and MCF-7 cells were maintained in DMEM:F12 media (1:1; Biological Industries, Beit Haemek, Israel), and 10 µg/ml insulin and 50 µM sodium pyruvate from Sigma-Aldrich Chemical Co. (St. Louis, MO) were added to MCF-7 cells. Lung adenocarcinoma A549 and colorectal adenocarcinoma SW620 cells were cultured in DMEM media. All were supplemented with 10% foetal bovine serum (FBS; Invitrogen-Life Technologies, Carlsbad, CA) and 100 U/mL penicillin, 100 µg/mL streptomycin and 2 mM L-glutamine, all from Biological Industries.
Mammary epithelial MCF-10A cells were maintained in DMEM:F12 media supplemented with 5% horse serum (Life Technologies), 20 ng/ml EGF, 0.5 µg/ml Hydrocortisone, 100 ng/ml Cholera toxin, 10 µg/ml insulin all from Sigma-Aldrich and 100 U/ml penicillin, 100 µg/ml streptomycin, and 2 mM L- glutamine (Biological Industries). Cells were grown at 37 °C under a 5% CO2 atmosphere.
S11.2 Cell Viability Assays
Cell viability was evaluated using the methylthiazoletetrazolium (MTT) colorimetric assay. Cancer cells (MCF-7, MDA-MB-231, A549 and SW620) or non-cancerous human cells MCF-10A cells were harvested (10^4 cells/well) in 96-well plates in a final volume of 100 µl and allowed to grow overnight.
After 24 h, vehicle solution (DMSO) or experimental compounds were added at 10 µM (single point experiment) or at different ranging concentrations (0.8-100 µM) to the assay plate and were incubated for 24 or 72 h. Then, 10 µl of MTT (5 mg/ml; Sigma-Aldrich) were added and the plates were incubated for 4 h at 37°C. 100 µl of DMSO (Sigma-Aldrich) were added to dissolve crystals and the reading was taken spectrophotometrically at 570 nm using a multi-well plate reader (Multiskan FC, Thermo Scientific, Waltham, MA, USA). Cell viability and inhibitory concentration (IC) values were obtained using GraphPad Prism v5.0 (Graphpad Software, San Diego, CA, USA). All data are shown as the mean value ± standard deviation (S.D.) of three independent experiments.

[1] = HPTS assay with TBAOH (electrogenic H+ or OH- transport); type: biochemical; conditions: sodium gluconate vesicles, pH 7.0; CCCP at 0.1 mol%; perenosins at loading giving 100% in NMDG-Cl assay
Method: S10.8. General Procedure for the HPTS Assay
Unilamellar vesicles were prepared using previously reported literature procedures16. A lipid film of POPC (1-palmitoyl-2-oleoyl-sn-glycero-3-phosphocholine) was prepared from a chloroform solution under reduced pressure and then dried under vacuum for 4 or more hours. The lipid film was rehydrated by vortexing with an internal solution containing HPTS (1 mM). The lipid suspension was then subjected to 9 freeze-thaw cycles and left to rest at room temperature for 30 minutes. After this, the suspension was extruded 25 times through a 200 nm polycarbonate membrane resulting in unilamellar vesicles of a mean diameter of 200 nm. The un-encapsulated HPTS was removed by size exclusion chromatography using a sephadex G-25 column and an external solution eluent that does not contain HPTS. […]
After 200 s, detergent (50 μL of Triton X-100 (11 w%) in H2O:DMSO (7:1 v/v)) was added to lyse the vesicles and after 5 mins a final reading was taken. […]
The fractional fluorescence intensity (If) was calculated using: […]
where Rt is the fluorescence ratio at time t, R0 is the fluorescence ratio at time 0 and Rd is the fluorescence ratio at the end of the experiment, after the addition of detergent. […]

[2] = MDA-MB-231, 24 h exposure, read-out: IC50 (24 h)
[3] = MDA-MB-231, 72 h exposure, read-out: IC50 (72 h)

`Cc1cc(C)c(/C=N/c2cccc3cc[nH]c23)[nH]1` [Perenosin 1a] gave an IC50 (MDA-MB-231 cells; [2]) of 38.3 µM and an IC50 (MDA-MB-231 cells; [3]) of 24.4 µM.

Work on `Cc1cc(C)c(/C=N/c2cc(C(F)(F)F)cc3cc[nH]c23)[nH]1` [Perenosin 1b] yielded an IC50 (MDA-MB-231 cells; [2]) of 32.2 µM and an IC50 (MDA-MB-231 cells; [3]) of 22.1 µM.

With `Cc1cc(/N=C/c2[nH]c(C)cc2C)c2[nH]ccc2c1` [Perenosin 1c] the IC50 (MDA-MB-231 cells; [2]) was 34.4 µM and the IC50 (MDA-MB-231 cells; [3]) was 20.4 µM.

For `N#CC(C#N)=NNc1cccc(Cl)c1` [CCCP], the “H+ or OH- transport (TBAOH base pulse)” value [1] was 100%.

`COc1cc(/N=C/c2[nH]c(C)cc2C)c2[nH]ccc2c1` [Perenosin 1e] showed an IC50 (MDA-MB-231 cells; [2]) of 38.4 µM and an IC50 (MDA-MB-231 cells; [3]) of 32.7 µM.
